According to ChEMBL document CHEMBL3046097, “Synthesis and QSAR analysis of chalcone derivatives as nitric oxide inhibitory agent” (Med Chem Res, 2012):

Key:
RAW264.7 [1] = experiment: Anti-inflammatory activity in Mus musculus (mouse) RAW264.7 cells assessed as inhibition of IFN-gamma/LPS-induced NO production after 17 to 20 hr by Griess assay; type: functional, cell-based
RAW264.7 [2] = experiment: Cytotoxicity against Mus musculus (mouse) RAW264.7 cells assessed as reduction in viable cells at 250 uM after 17 to 20 hr by MTT assay; type: cell-based; conditions: raw264.7, 250 µM
RAW264.7 [3] = experiment: Cytotoxicity against Mus musculus (mouse) RAW264.7 cells assessed as reduction in viable cells at 25 uM after 17 to 20 hr by MTT assay; type: cell-based; conditions: raw264.7, 25 µM
RAW264.7 [4] = experiment: Cytotoxicity against Mus musculus (mouse) RAW264.7 cells assessed as reduction in viable cells at 50 uM after 17 to 20 hr by MTT assay; type: cell-based; conditions: raw264.7, 50 µM

| SMILES | IC50 (RAW264.7 [1]; read-out: IC50) [µM] | IC50 (RAW264.7 [1]; read-out: pIC50 (converted)) [µM] | other results |
| --- | --- | --- | --- |
| O=C(/C=C/c1ccc(O)cc1)c1cccs1 | 46.8 | – | – |
| Cc1ccc(C(=O)/C=C/c2ccc(F)cc2)o1 | 17 | 17 | – |
| O=C(/C=C/c1ccccc1O)c1ccco1 | 19.3 | 19.5 | – |
| O=C(/C=C/c1ccccc1O)c1cccs1 | 16.2 | – | – |
| COc1ccc(OC)c(/C=C/C(=O)c2ccco2)c1 | 16 | 15.8 | – |
| COc1ccc(OC)c(/C=C/C(=O)c2ccc(Cl)s2)c1 | 26 | – | – |
| Cc1ccc(C(=O)/C=C/c2ccccc2Cl)o1 | 17 | 17 | – |
| Cc1ccc(C(=O)/C=C/c2ccco2)o1 | 21.3 | 21.4 | Activity (RAW264.7 [2]): Non-toxic; Activity (RAW264.7 [3]): Non-toxic; Activity (RAW264.7 [4]): Non-toxic |
| Cc1cc(C(=O)/C=C/c2ccccc2O)c(C)o1 | 13.8 | – | – |
| Cc1cc(C(=O)/C=C/c2cccc(O)c2)c(C)o1 | 7.96 | – | – |
| Cc1cc(C(=O)/C=C/c2ccc(O)cc2)c(C)o1 | 13.5 | – | – |
| Cc1cc(C(=O)/C=C/c2ccccc2OCC(=O)O)c(C)o1 | ≥ 50 | – | – |
| O=C(/C=C/c1ccccc1O)c1ccccn1 | 29.9 | – | – |
| O=C(/C=C/c1cccc(O)c1)c1ccccn1 | 49.5 | – | – |
| O=C(/C=C/c1ccccc1O)c1ccncc1 | 31.7 | – | – |
| O=C(/C=C/c1cccc(O)c1)c1ccncc1 | ≥ 50 | – | – |
| O=C(/C=C/c1ccc(O)cc1)c1ccncc1 | ≥ 50 | – | – |
| COc1ccc(OC)c(/C=C/C(=O)c2cccs2)c1 | 38.7 | – | – |
| O=C(/C=C/c1ccccc1O)c1ccc(Cl)s1 | 23.4 | – | – |
| O=C(/C=C/c1cccc(O)c1)c1ccc(Cl)s1 | 33.3 | – | – |

| SMILES | IC50 (RAW264.7 [1]; read-out: IC50) [µM] | IC50 (RAW264.7 [1]; read-out: pIC50 (converted)) [µM] | other results |
| --- | --- | --- | --- |
| O=C(/C=C/c1ccc(O)cc1)c1ccc(Cl)s1 | ≥ 50 | – | – |
| O=C(/C=C/c1cccc(O)c1)c1ccco1 | 24.8 | 24.5 | – |
| O=C(/C=C/c1ccc(O)cc1)c1ccco1 | 24.9 | 25.1 | – |
| Cc1ccc(C(=O)/C=C/c2ccccc2O)o1 | 5.88 | 6.92 | – |
| Cc1ccc(C(=O)/C=C/c2cccc(O)c2)o1 | 9.35 | 9.33 | – |
| Cc1ccc(C(=O)/C=C/c2ccc(O)cc2)o1 | 16.3 | 16.2 | – |
| COc1ccc(OC)c(/C=C/C(=O)c2ccc(C)o2)c1 | 2.51 | 2.51 | – |
| Cc1ccc(C(=O)/C=C/c2ccccc2OCC(=O)O)o1 | ≥ 50 | – | – |
| Cc1ccc(C(=O)/C=C/c2ccc([N+](=O)[O-])cc2)o1 | 14.5 | 14.5 | – |
| COc1cc(OC)c(/C=C/C(=O)c2ccc(C)o2)c(OC)c1 | 5.62 | 5.62 | – |
| COc1ccc(/C=C/C(=O)c2ccc(C)o2)c(OC)c1OC | 4.47 | 4.47 | – |
| COc1ccc(/C=C/C(=O)c2ccc(C)o2)c(F)c1 | 5.31 | 12.3 | – |
| COc1cccc(/C=C/C(=O)c2ccc(C)o2)c1OC | 2.26 | 2.24 | Activity (RAW264.7 [2]): Toxic; Activity (RAW264.7 [3]): Toxic; Activity (RAW264.7 [4]): Toxic |
| COc1cccc(OC)c1/C=C/C(=O)c1ccc(C)o1 | 6.45 | 6.46 | – |
| Cc1ccc(C(=O)/C=C/c2ccccc2F)o1 | 12.9 | 12.9 | – |
| Cc1ccc(C(=O)/C=C/c2cccc(Cl)c2)o1 | 7.76 | 7.76 | – |
| Cc1ccc(C(=O)/C=C/c2ccc(Cl)cc2)o1 | 11.5 | 11.5 | – |
| Cc1ccc(C(=O)/C=C/c2cccc(F)c2)o1 | 16.1 | 16.2 | – |
| COc1cc(O)cc(O)c1C(=O)/C=C/c1ccccc1 [CARDAMOMIN] | 11.5 | – | – |
| COC(=O)[C@@H](N)CCCNC(=N)N[N+](=O)[O-] [L-NAME] | 23.2 | – | – |
